The values below come from patent US20160120858A1 (ACADEMIA SINICA, priority 2014, published 2016).

For test [1], the system named is NMDAR. The test can be described thus: Simultaneous NMDA- and AMPA-eEPSCs at −40 mV, patch-clamp, hippocampal slices. It counts as cell-based, mouse. The settings on record: for Effect on clioquinol-dependent increase in NMDA/AMPA ratio at −40 mV: WT and KO. How it is done: (§1) For electrophysiological experiments, sagittal hippocampal slices (400 uM thick for extracellular, 300 uM thick for intracellular recordings) of Shank2^−/− mice (or ZnT3^−/− mice) and their wild-type littermates were prepared using a vibratome (Leica VT1200) in ice-cold dissection buffer containing (in mM) 212 sucrose, 25 NaHCO3, 5 KCl, 1.25 NaH2PO4, 0.5 CaCl2, 3.5 MgSO4, 10 D-glucose, 1.25 L-ascorbic acid, and 2 Na-pyruvate bubbled with 95% 02/5% CO2. CA3 was removed to prevent epileptiform activity. Slices were restored for 1 hour in 32° C. in a normal artificial CSF (ACSF) (In units of mM: 124 NaCl, 2.5 kCl, 1 NaH2PO4, 25 NaHCO3, 10 glucose, 2 CaC12, 2 Mg504 oxidized by 95% 02/5% CO2) For the recording, a single slice was moved to and maintained in submerged-type chamber at 28° C., continuously perfused with ACSF (2 mL/minute) saturated with 95% 02/5% CO2. Stimulation and recording pipettes were pulled from borosilicate glass capillaries (Harvard Apparatus) using a micropipette electrode puller (Narishege).
Whole-cell patch-clamp recordings of hippocampal CA1 pyramidal neurons were also made using a MultiClamp 700B amplifier (Molecular Devices) and Digidata 1440A (Molecular Devices). During whole-cell patch-clamp recordings, series resistance was monitored each sweep by measuring the peak amplitude of the capacitance currents in response to short hyperpolarizing step pulse (5 mV, 40 ms); only cells with a change in <25% were included in the analysis. For NMDA (N-Methyl-D-aspartate)/AMPA (alpha-amino-3-hydroxy-5-methylisoxazole-4-propionic acid) ratio experiments, mouse hippocampal slices at the age of postnatal day 17 to 25 were used. The recording pipettes (2.5 to 3.5 MΩ) were filled with an internal solution containing the following (in mM): 100 CsMeSO4, 10 TEA-Cl, 8 NaCl, 10 HEPES, 5 QX-314-C1, 2 Mg-ATP, 0.3 Na-GTP, 10 EGTA, with pH 7.25, 295 mOsm). CA1 pyramidal neurons were voltage-clamped at −70 mV, and EPSPs were evoked at every 15 sec. AMPAR-mediatedEPSCs were recorded at −70 mV, and 30 consecutive responses were recorded after stable baseline. After recording AMPAR-mediated EPSPs, holding potential was changed to +40 mV to record NMDA receptor-mediated EPSPs. NMDA component was measured at 60 ms after the stimulation. The NMDA/AMPA ratio was determined by dividing the mean value of 30 NMDA components of EPSPs by the mean value of 30 AMPAR-mediated EPSC peak amplitudes. […] For measuring AMPAR-mediated and NMDAR-mediated EPSCs together upon CQ treatment, pyramidal neurons were voltage-clamped at −40 mV, and EPSCs were evoked at every 15 sec. AMPAR-mediated EPSC was determined as a peak amplitude of EPSC, and NMDAR-mediated EPSC as a component at 60 ms after stimulation. NMDA/AMPA ratio at −40 mV was calculated by using both values, and monitored during the experimental process. […] Picrotoxin (100 uM) was always added to ACSF to block GABAA receptor-mediated currents.

Test [2] deals with NMDAR. The test is described as follows: NMDA-fEPSP extracellular recordings, hippocampal slices. The settings on record: for Effect on clioquinol-dependent increase in NMDAR activity (NMDA-fEPSPs): applied to hippocampal slices before clioquinol treatment. In kind it is cell-based, mouse. The protocol:
as §1
For extracellular recordings, mouse hippocampal slices at the age of postnatal day 21 to 35 were used. Field excitatory postsynaptic potentials (fEPSPs) were recorded in the stratum radiatum of the hippocampal CA1 region using pipettes filled with ACSF (1 MΩ). fEPSP was amplified (Multiclamp 700B, Molecular Devices), and digitized (Digidata 1440A, Molecular
Devices) for measurements. The Schaffer collateral pathway was stimulated every 20 seconds with pipettes filled with ACSF (0.3 to 0.5 MΩ). The stimulation intensity was adjusted to yield a half-maximal response, and three successive responses were averaged and expressed relative to the normalized baseline. To induce LTP, high frequency stimulation (100 Hz, 1 s) was applied after a stable baseline was acquired. […] To isolate NMDAR-mediated fEPSPs, ACSF containing 2 mM calcium, 0.1 mM magnesium, and 6,7-dinitroquinoxaline-2,3-dione (10 uM, DNQX, Tocris), which inhibits AMPAR-mediated EPSPs, were used.

In the next test the test system is Tbr1^+/− mice. The settings on record: reported by Huang et al. 2014; cited from earlier work.

“Also recorded” adds a separate entry of the source.

As for `NC(CCCP(=O)(O)O)C(=O)O` (stereo not drawn) [AP5], the “NMDA-eEPSCs at −40 mV” value in the test on NMDAR [1] (D-AP5 50 uM, 10 minutes, after CQ) is on record as “significantly reduced”. As to `O=C([O-])CN(CCN(CC(=O)[O-])CC(=O)[O-])CC(=O)[O-].[Ca+2].[Na+].[Na+]` [Ca-EDTA], in the test with NMDAR [2] (Ca-EDTA 2 mM, during and after the treatment, WT and KO), the “NMDAR function (NMDA-fEPSPs), substance alone” value is on record as “did not affect NMDA-fEPSP; also recorded: has no effect on NMDAR function”. In the test with NMDAR [2], the “Effect on clioquinol-dependent increase in NMDAR activity (NMDA-fEPSPs)” value was “eliminated the clioquinol-dependent increase in NMDAR activity”. Regarding `N[C@@H]1CONC1=O` [D-cycloserine], the “Reduction in social interaction” value in the test with Tbr1^+/− mice is given as “normalized”.

Turning to `CC(C)(C)n1nc(-c2ccc(Cl)cc2)c2c(N)ncnc21` [PP2], the “Effect on clioquinol-dependent increase in NMDAR activity (NMDA-fEPSPs)” value with NMDAR [2] is “removed clioquinol activation of NMDAR”.

Regarding `Nc1ncnc2c1cnn2-c1ccccc1` [PP3], the “Effect on clioquinol-dependent increase in NMDAR activity (NMDA-fEPSPs)” value with NMDAR [2] is recorded as “failed to block the NMDAR activation”. For `CN(C)S(=O)(=O)c1ccc2c(c1)/C(=C/c1cc3c([nH]1)CCCC3)C(=O)N2` [SU6656], the “Effect on clioquinol-dependent increase in NMDAR activity (NMDA-fEPSPs)” value with NMDAR [2] is given as “removed clioquinol activation of NMDAR”. Still for that read-out and setting: under `O=C(NN=C1CCCCC1)C(=O)NN=C1CCCCC1` [cuprizone] stands “did not inhibit the clioquinol-induced increase in NMDAR activity”. Turning to “Src (40-58): Src-inhibitory peptide with a sequence corresponding to Src amino acid residues 40-58 (KPASADGHRGPSAAFAPAA; UniProt P12931 40-58, looked up, fragment)”, the “Effect on clioquinol-dependent increase in NMDAR activity (NMDA-eEPSCs)” value in the test with NMDAR [1] (peptide in the patch pipette, 0.03 mg/mL, Shank2^−/− and wild-type synapses) is given as “prevented clioquinol from increasing NMDAR activity”. Moreover, the “Effect on clioquinol-dependent increase in NMDA/AMPA ratio at −40 mV” value in the test with NMDAR [1] (peptide in the patch pipette, 0.03 mg/mL) is recorded as “blocks CQ-dependent NMDAR activation”; in the test on NMDAR [1] (peptide in the patch pipette, 0.03 mg/mL, listed as Src-inhibitory peptide), “blocked”. Besides, in the test on NMDAR [1] (peptide in the patch pipette, wild-type and Shank2^−/− synapses), the “AMPAR function (AMPA-eEPSCs)” value was “unaffected”.
